{"source": "patent US20060089375A1", "about": "“Pyrazolo[3,4-b] pyridine compounds, and their use as phosphodiesterase inhibitors” (priority 2002, published 2006)"}
{"molecular_target": "T1, PDE4B (human recombinant) (Homo sapiens, UniProt Q07343)", "T1 construct": "made in house", "T1 sequence (Q07343 1-564 isoform Q07343-2)": "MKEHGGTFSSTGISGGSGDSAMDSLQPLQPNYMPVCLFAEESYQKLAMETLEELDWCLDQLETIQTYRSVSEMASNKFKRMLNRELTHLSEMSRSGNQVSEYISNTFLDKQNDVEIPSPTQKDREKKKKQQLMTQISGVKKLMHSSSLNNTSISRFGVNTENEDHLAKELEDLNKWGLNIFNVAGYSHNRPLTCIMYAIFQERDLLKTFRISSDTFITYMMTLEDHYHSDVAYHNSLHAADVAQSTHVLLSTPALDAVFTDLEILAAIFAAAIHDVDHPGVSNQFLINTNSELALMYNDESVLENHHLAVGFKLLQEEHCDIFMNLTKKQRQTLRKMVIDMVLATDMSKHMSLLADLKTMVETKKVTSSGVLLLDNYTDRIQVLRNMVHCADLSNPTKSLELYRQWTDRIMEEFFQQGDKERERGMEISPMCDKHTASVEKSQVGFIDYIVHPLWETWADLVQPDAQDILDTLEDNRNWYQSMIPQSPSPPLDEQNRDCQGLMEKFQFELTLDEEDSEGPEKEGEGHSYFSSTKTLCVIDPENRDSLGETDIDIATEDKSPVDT", "test": "Inhibition of PDE4B activity: radioactive SPA or IMAP Fluorescence Polarisation (FP) assay", "format": "biochemical", "conditions": "PDE4B inhibitory activity, one reading or average of ca. 2-6 readings, read-out: PDE4B pIC50 (± about 0.5) (converted)", "description": "Human recombinant PDE4B, in particular the 2B splice variant thereof (HSPDE4B2B), is disclosed in WO 94/20079 and also M. M. McLaughlin et al., “A low Km, rolipram-sensitive, cAMP-specific phosphodiesterase from human brain: cloning and expression of cDNA, biochemical characterisation of recombinant protein, and tissue distribution of mRNA”, J. Biol. Chem., 1993, 268, 6470-6476. For example, in Example 1 of WO 94/20079, human recombinant PDE4B is described as being expressed in the PDE-deficient yeast Saccharomyces cerevisiae strain GL62, e.g. after induction by addition of 150 uM CuSO4, and 100,000×g supernatant fractions of yeast cell lysates are described for use in the harvesting of PDE4B enzyme.\nThe ability of compounds to inhibit catalytic activity at PDE4B or 4D (human recombinant), PDE3 (from bovine aorta), PDE5 (human recombinant) or PDE6 (from bovine retina) was determined by Scintillation Proximity Assay (SPA) in 96-well format. Test compounds (preferably as a solution in DMSO, e.g. 0.5 to 1 microlitre (ul) volume) were preincubated at ambient temperature (room temperature, e.g. 19-23° C.) in Wallac Isoplates (code 1450-514) with PDE enzyme in 50 mM Tris-HCl buffer pH 7.5, 8.3 mM MgCl2, 1.7 mM EGTA, 0.05% (w/v) bovine serum albumin for 10-30 minutes (usually 30 minutes). The enzyme concentration was adjusted so that no more than 20% hydrolysis of the substrate defined below occurred in control wells without compound, during the incubation. For the PDE3, PDE4B and PDE4D assays, [5′,8-^3H]Adenosine 3′,5′-cyclic phosphate (Amersham Pharmacia Biotech, code TRK.559; or Amersham Biosciences UK Ltd, Pollards Wood, Chalfont St Giles, Buckinghamshire HP8 4SP, UK) was added to give 0.05 uCi per well and ˜10 nM final concentration. For the PDE5 and PDE6 assays, [8-^3H]Guanosine 3′,5′-cyclic phosphate (Amersham Pharmacia Biotech, code TRK.392) was added to give 0.05 uCi per well and ˜36 nM final concentration. Plates, e.g. containing approx. 100 ul volume of assay mixture, were mixed on an orbital shaker for 5 minutes and incubated at ambient temperature for 1 hour. Phosphodiesterase SPA beads (Amersham Pharmacia Biotech, code RPNQ 0150) were added ([…] per well) to terminate the assay. Plates were sealed and shaken and allowed to stand at ambient temperature for 35 minutes to 1 hour (preferably 35 minutes) to allow the beads to settle. Bound radioactive product was measured using a WALLAC TRILUX 1450 Microbeta scintillation counter. For inhibition curves, 10 concentrations (1.5 nM-30 uM) of each compound were assayed. Curves were analysed using ActivityBase and XLfit (ID. Business Solutions Limited, 2 Ocean Court, Surrey Research Park, Guildford, Surrey GU2 7QB, United Kindgom) Results were expressed as pIC50 values.\nThe ability of compounds to inhibit catalytic activity at PDE4B (human recombinant) or PDE4D (human recombinant) was determined by IMAP Fluorescence Polarisation ([…]) assay (IMAP Explorer kit, available from Molecular Devices Corporation, Sunnydale, Calif., USA; Molecular Devices code: R^8062) in 384-well format. The IMAP FP assay is able to measure PDE activity in an homogenous, non-radioactive assay format. The FP assay uses the ability of immobilised trivalent metal cations, coated onto nanoparticles (tiny beads), to bind the phosphate group of Fl-AMP that is produced on the hydrolysis of fluorescein-labelled (Fl) cyclic adenosine mono-phosphate (Fl-cAMP) to the non-cyclic Fl-AMP form. […] Binding of Fl-AMP product to the beads (coated with the immobilised trivalent cations) slows the rotation of the bound Fl-AMP and leads to an increase in the fluorescence polarisation ratio of parallel to perpendicular light. Inhibition of the PDE reduces/inhibits this signal increase. […]", "units": {"IC50": "nM"}}
{"smiles": "CCn1ncc2c(NC3CCOCC3)c(C(=O)NCc3ccc(C)c(Cl)c3)cnc21", "note": "[Example 493, N-[(3-Chloro-4-methylphenyl)methyl]-1-ethyl-4-(tetrahydro-2H-pyran-4-ylamino)-1H-pyrazolo[3,4-b]pyridine-5-carboxamide]", "IC50": "0.1 to 6.31"}
{"smiles": "CCn1ncc2c(NC3CCC(=O)CC3)c(C(=O)NCc3ccc(OC(F)F)cc3)cnc21", "note": "[Example 266, N-({4-[(Difluoromethyl)oxy]phenyl}methyl)-1-ethyl-4-[(4-oxocyclohexyl)amino]-1H-pyrazolo[3,4-b]pyridine-5-carboxamide]", "IC50": "0.1 to 6.31"}
{"smiles": "CCn1ncc2c(NC3CCOCC3)c(C(=O)NCc3cc(Cl)cc(Cl)c3)cnc21", "note": "[Example 581, N-[(3,5-Dichlorophenyl)methyl]-1-ethyl-4-(tetrahydro-2H-pyran-4-ylamino)-1H-pyrazolo[3,4-b]pyridine-5-carboxamide]", "IC50": "0.1 to 6.31"}
{"smiles": "CCn1ncc2c(NC3CCC(=NO)CC3)c(C(=O)NCc3ccc(C)c(Cl)c3)cnc21", "note": "(stereo not drawn) [Example 683, N-[(3-Chloro-4-methylphenyl)methyl]-1-ethyl-4-{[4-(hydroxyimino)cyclohexyl]amino}-1H-pyrazolo[3,4-b]pyridine-5-carboxamide]", "IC50": "0.1 to 6.31"}
{"smiles": "CCn1ncc2c(NC3CCOCC3)c(C(=O)NCc3c(C)cc(Cl)cc3Cl)cnc21", "note": "[Example 644, N-[(2,4-Dichloro-6-methylphenyl)methyl]-1-ethyl-4-(tetrahydro-2H-pyran-4-ylamino)-1H-pyrazolo[3,4-b]pyridine-5-carboxamide]", "IC50": "0.1 to 6.31"}
{"smiles": "CCn1ncc2c(NC3CCCC(O)C3)c(C(=O)NCc3ccccc3)cnc21", "note": "(stereo not drawn) [Example 198, N-Benzyl-1-ethyl-4-[(3-hydroxycyclohexyl)amino]-1H-pyrazolo[3,4-b]pyridine-5-carboxamide]", "IC50": 3.16}
{"smiles": "CCc1ccc(CNC(=O)c2cnc3c(cnn3CC)c2NC2CCOCC2)cc1", "note": "[Example 636, 1-Ethyl-N-[(4-ethylphenyl)methyl]-4-(tetrahydro-2H-pyran-4-ylamino)-1H-pyrazolo[3,4-b]pyridine-5-carboxamide]", "IC50": "0.1 to 6.31"}
{"smiles": "CCn1ncc2c(NC3CCOCC3)c(C(=O)NCc3ccccc3OC(F)F)cnc21", "note": "[Example 495, N-({2-[(Difluoromethyl)oxy]phenyl}methyl)-1-ethyl-4-(tetrahydro-2H-pyran-4-ylamino)-1H-pyrazolo[3,4-b]pyridine-5-carboxamide]", "IC50": "0.1 to 6.31"}
{"smiles": "CCn1ncc2c(NC3CCC(=NO)CC3)c(C(=O)NCc3ccc(OC(F)F)cc3)cnc21", "note": "(stereo not drawn) [Example 685, N-({4-[(Difluoromethyl)oxy]phenyl}methyl)-1-ethyl-4-{[4-(hydroxyimino)cyclohexyl]amino}-1H-pyrazolo[3,4-b]pyridine-5-carboxamide]", "IC50": "0.1 to 6.31"}
{"smiles": "CCc1cc(CC)cc(CNC(=O)c2cnc3c(cnn3CC)c2NC2CCOCC2)c1", "note": "[Example 575, N-[(3,5-Diethylphenyl)methyl]-1-ethyl-4-(tetrahydro-2H-pyran-4-ylamino)-1H-pyrazolo[3,4-b]pyridine-5-carboxamide]", "IC50": "0.1 to 6.31"}
{"smiles": "CCOC(=O)c1cnc2c(cnn2C)c1NC1CCCC1", "note": "[Example 6]", "IC50": 251}
{"smiles": "CCn1ncc2c(NC3CCC(=NO)CC3)c(C(=O)NCc3ccc(Cl)cc3C)cnc21", "note": "(stereo not drawn) [Example 684, N-[(4-Chloro-2-methylphenyl)methyl]-1-ethyl-4-{[4-(hydroxyimino)cyclohexyl]amino}-1H-pyrazolo[3,4-b]pyridine-5-carboxamide]", "IC50": "0.1 to 6.31"}
{"smiles": "Cn1ncc2c(NC3CCOCC3)c(C(=O)NCc3ccccc3)cnc21", "note": "[Example 63, N-Benzyl-1-methyl-4-(tetrahydro-2H-pyran-4-ylamino)-1H-pyrazolo[3,4-b]pyridine-5-carboxamide]", "IC50": 126}
{"smiles": "CCn1ncc2c(NC3CCOCC3)c(C(=O)NCc3ccccn3)cnc21", "note": "[Example 600, 1-Ethyl-N-(2-pyridinylmethyl)-4-(tetrahydro-2H-pyran-4-ylamino)-1H-pyrazolo[3,4-b]pyridine-5-carboxamide]", "IC50": "12.6 to 100"}
{"smiles": "CCn1ncc2c(NC3CCC(=O)CC3)c(C(=O)NC3Cc4ccccc4C3)cnc21", "note": "[Example 271, N-(2,3-Dihydro-1H-inden-2-yl)-1-ethyl-4-[(4-oxocyclohexyl)amino]-1H-pyrazolo[3,4-b]pyridine-5-carboxamide]", "IC50": "0.1 to 6.31"}
{"smiles": "CCn1ncc2c(NC3CCC(=O)CC3)c(C(=O)NCc3ccc(C)cc3C)cnc21", "note": "[Example 260, N-[(2,4-dimethylphenyl)methyl]-1-ethyl-4-[(4-oxocyclohexyl)amino]-1H-pyrazolo[3,4-b]pyridine-5-carboxamide]", "IC50": "0.1 to 6.31"}
{"smiles": "CCn1ncc2c(NC3CCC(=O)CC3)c(C(=O)NCc3ccc(C)c(C)c3)cnc21", "note": "[Example 261, N-[(3,4-Dimethylphenyl)methyl]-1-ethyl-4-[(4-oxocyclohexyl)amino]-1H-pyrazolo[3,4-b]pyridine-5-carboxamide]", "IC50": "0.1 to 6.31"}
{"smiles": "CCn1ncc2c(NC3CCOCC3)c(C(=O)NCc3cnn(C)c3)cnc21", "note": "[Example 178, 1-Ethyl-N-[(1-methyl-1H-pyrazo1-4-yl)methyl]-4-(tetrahydro-2H-pyran-4-ylamino)-1H-pyrazolo[3,4-b]pyridine-5-carboxamide]", "IC50": "12.6 to 100"}
{"smiles": "CCn1ncc2c(NC3CCOCC3)c(C(=O)NCc3cc(C)cc(C)c3)cnc21", "note": "[Example 624, N-[(3,5-Dimethylphenyl)methyl]-1-ethyl-4-(tetrahydro-2H-pyran-4-ylamino)-1H-pyrazolo[3,4-b]pyridine-5-carboxamide]", "IC50": "0.1 to 6.31"}
{"smiles": "CCn1ncc2c(NC3CCC(=O)CC3)c(C(=O)NCc3cccc(Cl)c3Cl)cnc21", "note": "[Example 677, N-[(2,3-Dichlorophenyl)methyl]-1-ethyl-4-[(4-oxocyclohexyl)amino]-1H-pyrazolo[3,4-b]pyridine-5-carboxamide]", "IC50": "0.1 to 6.31"}
{"smiles": "CCn1ncc2c(NC3CCCCC3)c(C(=O)NCc3ccncc3)cnc21", "note": "[Example 32, 4-(Cyolohexylamino)-1-ethyl-N-(pyridin-4-ylmethyl)-1H-pyrazolo[3,4-b]pyridine-5-carboxamide]", "IC50": 20}
{"smiles": "CCn1ncc2c(NC3CCC(=O)CC3)c(C(=O)NCc3ccc(N(C)C)cc3)cnc21", "note": "[Example 265, N-{[4-(Dimethylamino)phenyl]methyl}-1-ethyl-4-[(4-oxocyclohexyl)amino]-1H-pyrazolo[3,4-b]pyridine-5-carboxamide]", "IC50": "0.1 to 6.31"}
{"smiles": "CCOC(=O)c1cnc2c(cnn2CC)c1NC1CCCCC1", "note": "[Example 2, Ethyl 4-(cyclohexylamino)-1-ethyl-1H-pyrazolo[3,4-b]pyridine-5-carboxylate]", "IC50": 10}
{"smiles": "CCC(CC)CNC(=O)c1cnc2c(cnn2CC)c1NC1CCCC1", "note": "[Example 42, 4-(Cyclopentylamino)-1-ethyl-N-(2-ethylbutyl)-1H-pyrazolo[3,4-b]pyridine-5-carboxamide]", "IC50": "12.6 to 100"}
{"smiles": "CCn1ncc2c(NC3CCOCC3)c(C(=O)NC3Cc4ccccc4C3)cnc21", "note": "[Example 165, N-(2,3-Dihydro-1H-inden-2-yl)-1-ethyl-4-(tetrahydro-2H-pyran-4-ylamino)-1H-pyrazolo[3,4-b]pyridine-5-carboxamide]", "IC50": "0.1 to 6.31"}
{"smiles": "CCn1ncc2c(NC3CCOCC3)c(C(=O)NCc3ccc(CC(C)C)cc3)cnc21", "note": "[Example 645, 1-Ethyl-N-{[4-(2-methylpropyl)phenyl]methyl}-4-(tetrahydro-2H-pyran-4-ylamino)-1H-pyrazolo[3,4-b]pyridine-5-carboxamide]", "IC50": "0.1 to 6.31"}
{"smiles": "CCn1ncc2c(NC3CCOCC3)c(C(=O)NCc3ccc(C(C)C)cc3)cnc21", "note": "[Example 551, 1-Ethyl-N-{[4-(1-methylethyl)phenyl]methyl)-4-(tetrahydro-2H-pyran-4-ylamino)-1H-pyrazolo[3,4-b]pyridine-5-carboxamide]", "IC50": "0.1 to 6.31"}
